Target: T1, GPR119 (UniProt Q8TDV5, S309L, species not given)
T1 sequence (Q8TDV5 1-335 S309L): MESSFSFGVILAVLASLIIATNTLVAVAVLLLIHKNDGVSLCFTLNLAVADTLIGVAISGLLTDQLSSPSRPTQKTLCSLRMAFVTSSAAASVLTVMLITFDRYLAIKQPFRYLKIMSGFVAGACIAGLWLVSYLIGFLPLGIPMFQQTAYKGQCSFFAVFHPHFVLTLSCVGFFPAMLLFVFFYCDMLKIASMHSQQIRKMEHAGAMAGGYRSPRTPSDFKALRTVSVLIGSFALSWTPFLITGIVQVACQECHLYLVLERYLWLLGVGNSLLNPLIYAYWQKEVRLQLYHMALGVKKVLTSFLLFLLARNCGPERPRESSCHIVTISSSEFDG
Test: GPR119 signaling, cyclic AMP (cAMP) HTRF assay
Type: cell-based, human (S309L variant) or murine
Conditions: CHO cells with Gα15 and murine GPR119 or HEK293 Flp-In cells with human GPR119 S309L, read-out: EC50 (agonist activation of GPR119, cAMP)
Description: The title compound was synthesized using 2-{2-[1-(5-chloropyrimidin-2-yl)piperidin-4-yl]cyclopropyl}ethyl 4-methylbenzenesulfonate from step 1 of this example by a general procedure analogous that described in Example 59. LRMS calc: 424.9; obs: 425.01 (M+1). Measurement of GPR119Signaling Using a Cyclic AMP (cAMP) Homogenous Time Resolved Fluorescence (HTRF) Assay
Chinese hamster ovary (CHO) cell lines stably transfected with the permissive guanine nucleotide binding protein alpha 15 (Gα15) and murine GPR119 were maintained in DMEM media containing FBS, penicillin-streptomycin, puromycin, and G418 (geneticin). Alternatively, human embryonic kidney (HEK)293 Flp-In cells (Invitrogen, Carlsbad, Calif.) were stably transfected with a human SNP variant (S309L) of GPR119 and maintained in DMEM media containing FBS, penicillin-streptomycin, and hygromycin. Agonist activation of the GPR119 receptor was measured in receptor transfected cells described above, treated with compounds of this invention, using a commercial homogenous time resolved fluorescence (HTRF) kit for measurement of cAMP (CisBio, Bedford, Mass.). The assay was performed in 96-well half-volume plates (murine) or 384-well plates (human) following the manufacturers instructions. Briefly, suspended cells were incubated with a dose titration of test compound at room temperature for 60 min, lysed, and incubated with HTRF reagents for an additional 60 min. The plate was read using an Envision multilabel reader (Perkin Elmer) adjusted to read time resolved fluorescence and the cAMP concentrations were extrapolated from a cAMP calibration curve. […] The concentration of test compound required to stimulate a half-maximal response (EC50), and efficacy as compared to an internal agonist control, was determined from a sigmoidal 4-parameter curve fit of the resulting plot of normalized activity versus compound concentration.

SMILES	EC50 [nM]
Cc1cc(NCC[C@@H]2C[C@@H]2C2CCN(c3ncc(Cl)cn3)CC2)cc(C#N)n1 [Ex 22, 4-[(2-{(1S,2S)-2-[1-(5-chloropyrimidin-2-yl)piperidin-4-yl]cyclopropyl}ethyl)amino]-6-methylpyridine-2-carbonitrile]	< 10
Clc1cnc(N2CCC([C@H]3C[C@H]3CCNc3cnc(-n4cncn4)cn3)CC2)nc1 [Ex 23, N-(2-{(1S,2S)-2-[1-(5-chloropyrimidin-2-yl)piperidin-4-yl]cyclopropyl}ethyl)-5-(1H-1,2,4-triazol-1-yl)pyrazin-2-amine]	< 10
Clc1cnc(N2CCC([C@H]3C[C@H]3CCNc3ccc(-n4cnnn4)cn3)CC2)nc1 [Ex 24, N-(2-{(1S,2S)-2-[1-(5-chloropyrimidin-2-yl)piperidin-4-yl]cyclopropyl}ethyl)-5-(1H-tetrazol-1-yl)pyridin-2-amine]	< 10
Clc1cnc(N2CCC([C@H]3C[C@H]3CCNc3ccc(-n4cnnc4)cc3)CC2)nc1 [Ex 25, N-(2-{(1S,2S)-2-[1-(5-chloropyrimidin-2-yl)piperidin-4-yl]cyclopropyl}ethyl)-4-(4H-1,2,4-triazol-4-yl)aniline]	< 10
Clc1cnc(N2CCC([C@H]3C[C@H]3CCNc3cnc(-n4cnnn4)nc3)CC2)nc1 [Ex 26, N-(2-{(1S,2S)-2-[1-(5-chloropyrimidin-2-yl)piperidin-4-yl]cyclopropyl}ethyl)-2-(1H-tetrazol-1-yl)pyrimidin-5-amine]	10 to 50
O=C1COC(=O)N1c1ccc(NCC[C@@H]2C[C@@H]2C2CCN(c3ncc(Cl)cn3)CC2)cn1 [Ex 27]	10 to 50
Cc1cc(NC(=O)C(C)(C)C)cnc1NCC[C@@H]1C[C@@H]1C1CCN(c2ncc(Cl)cn2)CC1 [Ex 28, N-{6-[(2-{(1S,2S)-2-[1-(5-chloropyrimidin-2-yl)piperidin-4-yl]cyclopropyl}ethyl)amino]-5-methylpyridin-3-yl}-2,2-dimethylpropanamide]	< 10
Cc1cc(NCC[C@@H]2C[C@@H]2C2CCN(c3ncc(Cl)cn3)CC2)ncc1NC(=O)C(C)(C)C [Ex 29, N-{6-[(2-{(1S,2S)-2-[1-(5-chloropyrimidin-2-yl)piperidin-4-yl]cyclopropyl}ethyl)amino]-4-methylpyridin-3-yl}-2,2-dimethyl propanamide]	< 10
CC(C)(C)C(=O)Nc1ccc(NCC[C@@H]2C[C@@H]2C2CCN(c3ncc(Cl)cn3)CC2)nc1 [Ex 30, N-{6-[(2-{(1S,2S)-2-[1-(5-chloropyrimidin-2-yl)piperidin-4-yl]cyclopropyl}ethyl)amino]pyridin-3-yl}-2,2-dimethyl propanamide]	< 10
Cc1cc(NCC[C@@H]2C[C@@H]2C2CCN(c3ncc(Cl)cn3)CC2)cnc1NC(=O)C(C)(C)C [Ex 31, N-{5-[(2-{(1S,2S)-2-[1-(5-chloropyrimidin-2-yl)piperidin-4-yl]cyclopropyl}ethyl)amino]-3-methylpyridin-2-yl}-2,2-dimethyl propanamide]	< 10
CC(C)(C)C(=O)Nc1ncc(NCC[C@@H]2C[C@@H]2C2CCN(c3ncc(Cl)cn3)CC2)cc1Cl [Ex 32, N-{3-chloro-5-[(2-{(1S,2S)-2-[1-(5-chloropyrimidin-2-yl)piperidin-4-yl]cyclopropyl}ethyl)amino]pyridin-2-yl}-2,2-dimethyl propanamide]	< 10
CC(=O)Nc1cnc(NCC[C@@H]2C[C@@H]2C2CCN(c3ncc(Cl)cn3)CC2)c(C)c1 [Ex 33, N-{6-[(2-{(1S,2S)-2-[1-(5-chloropyrimidin-2-yl)piperidin-4-yl]cyclopropyl}ethyl)amino]-5-methylpyridin-3-yl}acetamide]	10 to 50
CC(=O)Nc1cnc(NCC[C@@H]2C[C@@H]2C2CCN(c3ncc(Cl)cn3)CC2)cc1C [Ex 34, N-{6-[(2-{(1S,2S)-2-[1-(5-chloropyrimidin-2-yl)piperidin-4-yl]cyclopropyl}ethyl)amino]-4-methylpyridin-3-yl}acetamide]	10 to 50
CC(=O)Nc1ccc(NCC[C@@H]2C[C@@H]2C2CCN(c3ncc(Cl)cn3)CC2)nc1 [Ex 35, N-{6-[(2-{(1S,2S)-2-[1-(5-chloropyrimidin-2-yl)piperidin-4-yl]cyclopropyl}ethyl)amino]pyridin-3-yl}acetamide]	10 to 50
Cc1cc(-n2cnnn2)cnc1NCC[C@@H]1C[C@@H]1C1CCN(c2ncc(Cl)cn2)CC1 [Ex 36, N-(2-{(1S,2S)-2-[1-(5-chloropyrimidin-2-yl)piperidin-4-yl]cyclopropyl}ethyl)-3-methyl-5-(1H-tetrazol-1-yl)pyridin-2-amine]	< 10
CC1(C(=O)Nc2ccc(NCC[C@@H]3C[C@@H]3C3CCN(c4ncc(Cl)cn4)CC3)nc2)CC1 [Ex 37, N-{6-[(2-{(1S,2S)-2-[1-(5-chloropyrimidin-2-yl)piperidin-4-yl]cyclopropyl}ethyl)amino]pyridin-3-yl}-1-methylcyclopropanecarboxamide]	< 10

Next, values leading:

EC50 [nM]	SMILES
< 10	CC1(C(=O)Nc2ccc(NCC[C@@H]3C[C@@H]3C3CCN(c4ncc(Cl)cn4)CC3)cn2)CC1 [Ex 38, N-{5-[(2-{(1S,2S)-2-[1-(5-chloropyrimidin-2-yl)piperidin-4-yl]cyclopropyl}ethyl)amino]pyridin-2-yl}-1-methylcyclopropane carboxamide]
< 10	Cc1cc(NCC[C@@H]2C[C@@H]2C2CCN(c3ncc(Cl)cn3)CC2)cnc1NC(=O)C1(C)CC1 [Ex 39]
10 to 50	Cc1cc(C#N)cc(NCC[C@@H]2C[C@@H]2C2CCN(c3ncc(Cl)cn3)CC2)n1 [Ex 40, 2-[(2-{(1S,2S)-2-[1-(5-chloropyrimidin-2-yl)piperidin-4-yl]cyclopropyl}ethyl)amino]-6-methylisonicotinonitrile]
10 to 50	Cc1cc(C#N)nc(NCC[C@@H]2C[C@@H]2C2CCN(c3ncc(Cl)cn3)CC2)c1 [Ex 41, 6-[(2-{(1S,2S)-2-[1-(5-chloropyrimidin-2-yl)piperidin-4-yl]cyclopropyl}ethyl)amino]-4-methylpyridine-2-carbonitrile]
< 10	Clc1cnc(N2CCC([C@H]3C[C@H]3CCNc3ccc4[nH]ncc4c3)CC2)nc1 [Ex 42, N-(2-{(1S,2S)-2-[1-(5-chloropyrimidin-2-yl)piperidin-4-yl]cyclopropyl}ethyl)-1H-indazol-5-amine]
10 to 50	O=C(Cc1ccc(NCC[C@@H]2C[C@@H]2C2CCN(c3ncc(Cl)cn3)CC2)cc1)NC1CC1 [Ex 43, 2-{4-[(2-{(1S,2S)-2-[1-(5-chloropyrimidin-2-yl)piperidin-4-yl]cyclopropyl}ethyl)amino]phenyl}-N-cyclopropylacetamide]
< 10	O=C1NCc2cc(NCC[C@@H]3C[C@@H]3C3CCN(c4ncc(Cl)cn4)CC3)ccc21 [Ex 44, 5-[(2-{(1S,2S)-2-[1-(5-chloropyrimidin-2-yl)piperidin-4-yl]cyclopropyl}ethyl)amino]isoindolin-1-one]
10 to 50	CN1Cc2cc(NCC[C@@H]3C[C@@H]3C3CCN(c4ncc(Cl)cn4)CC3)ccc2C1=O [Ex 45, 5-[(2-{(1S,2S)-2-[1-(5-chloropyrimidin-2-yl)piperidin-4-yl]cyclopropyl}ethyl)amino]-2-methylisoindolin-1-one]

— patent US8552022B2, “Substituted cyclopropyl compounds, compositions containing such compounds and methods of treatment” (Merck Sharp & Dohme Corp., priority 2009, dated 2013)
